These results are taken from US4431638A, “Poly-cation salts of bis(or tris)[4-0-monohexose-thio]-arylene sulfate derivatives” (American Cyanamid Company, priority 1982, dated 1984).

Like-named read-outs stand apart in the source and are kept apart here.

In test [1] the test system is hereditary angioneurotic edema. To be noted: known complement inhibitors, literature reports; cited from earlier work.
For another test, the system named is complement system. Conditions: Br. J. Exp. Pathol. 33: 327 (1952); cited from earlier work.
Test [2] deals with total hemolytic complement activity. Conditions: both in vitro and in vivo; cited from earlier work.
The test system of test [3] is complement activity of sera. Nature of the test: Guinea Pig Intraperitoneal Test (GPIP). It counts as in vivo. Conditions: 200 mg/kg i.p.; for inhibition at 200 mg/kg: Cavia porcellus, ip. The protocol:
(§1) Percent inhibition is calculated by comparison with simultaneous controls.

In test [4] the test system is late components of human complement (C3-C9). Nature of the test: Test Code 035 (C3-C9 inhibitor), lysis of EAC 142. It counts as biochemical. Conditions: serial twofold dilution assay; higher well number indicates higher activity. The protocol:
as §1
(§2) *Tests identified by code herein. For a discussion of the tests, see
(§3) **Activity in wells, a serial dilution assay; higher well number indicate

The next test concerns the target activated human C1 (Homo sapiens, UniProt P09871). Nature of the test: Test Code 026 (C1 inhibitor). It counts as biochemical. Conditions: serial twofold dilution assay; higher well number indicates higher activity. The procedure:
as §1, §2, §3

On to `NCCCCCC(=O)O` [epsilon-aminocaproic acid], for which, in test [1], the “success in the treatment of hereditary angioneurotic edema” value was “used with success”.
Regarding heparin, the anticomplementary effect entry with complement system is recorded as “anticomplementary effect”.
With pentosan-polysulfoester, the “anticomplementary activity on human serum, judged by reduction in total hemolytic complement activity” value in test [2] is listed as “anticomplementary activity”.
As a reminder, the inhibition is the drop in the measured response relative to a control, in per cent. In the case of `O=S(=O)(O)OC[C@H]1O[C@@H](Sc2ccc(NS(=O)(=O)c3cc(S(=O)(=O)Nc4ccc(S[C@@H]5O[C@H](COS(=O)(=O)O)[C@@H](OS(=O)(=O)O)[C@H](OS(=O)(=O)O)[C@H]5OS(=O)(=O)O)cc4)cc(S(=O)(=O)Nc4ccc(S[C@@H]5O[C@H](COS(=O)(=O)O)[C@@H](OS(=O)(=O)O)[C@H](OS(=O)(=O)O)[C@H]5OS(=O)(=O)O)cc4)c3)cc2)[C@H](OS(=O)(=O)O)[C@@H](OS(=O)(=O)O)[C@@H]1OS(=O)(=O)O.[Na].[Na].[Na].[Na].[Na].[Na].[Na].[Na].[Na].[Na].[Na].[Na]` [Dodecasodium N,N',N"-tris[4-[(2,3,4,6-tetra-O-sulfo-β-D-glucopyranosyl)thio]phenyl]-1,3,5-benzenetrisulfonamide], in test [3] (serum complement 2 hours after injection), the “In vivo Activity (Guinea Pig % Inhibition) Intraperitoneal, 2 hours” value amounted to 93%. The “In vivo Activity (Guinea Pig % Inhibition) Intraperitoneal, 6 hours” value in test [3] (serum complement 6 hours after injection) is reported as 76%. The inhibition at 200 mg/kg turned out to be 91% in test [3] (2 h, serum complement 2 hours after injection, read-out: In vivo Activity (Guinea Pig % Inhibition) Intraperitoneal, 2 hours); 91% in test [3] (6 h, serum complement 6 hours after injection, read-out: In vivo Activity (Guinea Pig % Inhibition) Intraperitoneal, 6 hours); 87% in test [3] (24 h, serum complement 24 hours after injection, read-out: In vivo Activity (Guinea Pig % Inhibition) Intraperitoneal, 24 hours). Also, in test [4], the “In vitro Activity C-Late 035 Wells” value is 2 Wells. Besides, on activated human C1, the “In vitro Activity C-1 026 Wells” value came to 10 Wells.
Turning to `Nc1ccc2cc(S(=O)(=O)[O-])cc(O)c2c1N=Nc1ccc(NC(=O)Nc2ccc(N=Nc3c(N)ccc4cc(S(=O)(=O)[O-])cc(O)c34)c(S(=O)(=O)[O-])c2)cc1S(=O)(=O)[O-].[Na+].[Na+].[Na+].[Na+]` [chlorazol fast pink, 3,3'-ureylenebis[6-(2-amino-8-hydroxy-6-sulfo-1-naphthylazo)benzenesulfonic acid], tetrasodium salt], the anticomplementary effect entry in the test with complement system is “anticomplementary effect”.
As for `NC[C@H]1CC[C@H](C(=O)O)CC1` [tranexamic acid], the “success in the treatment of hereditary angioneurotic edema” value in test [1] was “used with success”.
With `O=C(Nc1ccc(S[C@@H]2O[C@H](COS(=O)(=O)O)[C@@H](OS(=O)(=O)O)[C@H](OS(=O)(=O)O)[C@H]2OS(=O)(=O)O)cc1)c1ccc(C(=O)Nc2ccc(S[C@@H]3O[C@H](COS(=O)(=O)O)[C@@H](OS(=O)(=O)O)[C@H](OS(=O)(=O)O)[C@H]3OS(=O)(=O)O)cc2)cc1.[Na].[Na].[Na].[Na].[Na].[Na].[Na].[Na]` [Octasodium N,N'-bis[4-[(2,3,4,6-tetra-O-sulfo-β-D-glucopyranosyl)thio]phenyl]-1,4-benzenedicarboxamide], the “In vitro Activity C-Late 035 Wells” value in test [4] is reported as 1 Wells. Further, at activated human C1, the “In vitro Activity C-1 026 Wells” value is 4 Wells.
Taken in the same sequence, the figures for `O=S(=O)(O)OC[C@H]1O[C@@H](Sc2ccc(NS(=O)(=O)c3ccc4c(S(=O)(=O)Nc5ccc(S[C@@H]6O[C@H](COS(=O)(=O)O)[C@@H](OS(=O)(=O)O)[C@H](OS(=O)(=O)O)[C@H]6OS(=O)(=O)O)cc5)cc(S(=O)(=O)Nc5ccc(S[C@@H]6O[C@H](COS(=O)(=O)O)[C@@H](OS(=O)(=O)O)[C@H](OS(=O)(=O)O)[C@H]6OS(=O)(=O)O)cc5)cc4c3)cc2)[C@H](OS(=O)(=O)O)[C@@H](OS(=O)(=O)O)[C@@H]1OS(=O)(=O)O` [Dodecasodium N,N',N"-tris[4-[(2,3,4,6-tetra-O-sulfo-β-D-glucopyranosyl)thio]phenyl]-1,3,6-naphthylenetrisulfonamide] were 1 Wells and 5 Wells.
Regarding `O=C(Nc1ccc(S[C@@H]2O[C@H](COS(=O)(=O)O)[C@@H](OS(=O)(=O)O)[C@H](OS(=O)(=O)O)[C@H]2OS(=O)(=O)O)cc1)c1cc(C(=O)Nc2ccc(S[C@@H]3O[C@H](COS(=O)(=O)O)[C@@H](OS(=O)(=O)O)[C@H](OS(=O)(=O)O)[C@H]3OS(=O)(=O)O)cc2)cc(C(=O)Nc2ccc(S[C@@H]3O[C@H](COS(=O)(=O)O)[C@@H](OS(=O)(=O)O)[C@H](OS(=O)(=O)O)[C@H]3OS(=O)(=O)O)cc2)c1.[Na].[Na].[Na].[Na].[Na].[Na].[Na].[Na].[Na].[Na].[Na].[Na]` [Dodecasodium N,N',N"-tris[4-[(2,3,4,6-tetra-O-sulfo-β-D-glucopyranosyl)thio]phenyl]-1,3,5-benzenetricarboxamide], the “In vitro Activity C-Late 035 Wells” value in test [4] was found to be 1 Wells. Further, the “In vitro Activity C-1 026 Wells” value on activated human C1 was 4 Wells.
